ChEMBL document CHEMBL4823278, “Metal binding 6-arylthio-3-hydroxypyrimidine-2,4-diones inhibited human cytomegalovirus by targeting the pUL89 endonuclease of the terminase complex” (Eur J Med Chem, 2021)

How the values were obtained:
[1] = biological target: T1, Tripartite terminase subunit 3 (Human betaherpesvirus 5) (UniProt P16732); settings: dose 20.0 µM
T1 sequence (whole entry): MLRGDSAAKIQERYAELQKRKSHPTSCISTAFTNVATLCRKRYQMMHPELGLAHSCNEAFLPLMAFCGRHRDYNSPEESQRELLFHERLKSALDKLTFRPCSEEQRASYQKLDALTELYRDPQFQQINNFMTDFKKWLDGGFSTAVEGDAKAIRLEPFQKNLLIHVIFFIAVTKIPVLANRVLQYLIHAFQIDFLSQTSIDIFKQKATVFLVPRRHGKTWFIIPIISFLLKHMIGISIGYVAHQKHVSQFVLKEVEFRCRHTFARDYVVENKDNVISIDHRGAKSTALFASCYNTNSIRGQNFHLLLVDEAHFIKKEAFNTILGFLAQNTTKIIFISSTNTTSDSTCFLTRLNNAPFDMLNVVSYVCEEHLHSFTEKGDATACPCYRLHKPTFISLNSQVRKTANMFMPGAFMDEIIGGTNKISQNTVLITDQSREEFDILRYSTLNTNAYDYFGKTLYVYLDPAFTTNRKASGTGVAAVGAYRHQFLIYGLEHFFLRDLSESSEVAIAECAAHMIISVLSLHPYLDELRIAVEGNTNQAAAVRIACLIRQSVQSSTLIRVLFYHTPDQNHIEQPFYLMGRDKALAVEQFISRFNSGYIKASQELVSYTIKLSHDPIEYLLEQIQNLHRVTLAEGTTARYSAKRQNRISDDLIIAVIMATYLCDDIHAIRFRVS

[2] = biological target: T1, Tripartite terminase subunit 3 (Human betaherpesvirus 5); experiment: Inhibition of human cytomegalovirus pUL89 endonuclease activity using 60 bp dsDNA substrate at 20 uM incubated for 30 mins by ELISA-based biochemical assay relative to control
[3] = tested on: Human betaherpesvirus 5; type: functional; settings: Human betaherpesvirus 5, HEL 299, time 168 hrs
[4] = (§1) Cytotoxicity against human HEL 299 cells assessed as cell viability at 10 uM incubated for 168 hrs by MTS-based tetrazolium reduction assay relative to control; settings: HEL 299 cells, read-out: Activity
[5] = tested on: HEL 299; experiment: as §1; settings: hel 299, 168 h, 10 µM
[6] = Apparent permeability of the compound incubated for 5 hrs by LC-MS/MS analysis based PAMPA method; type: ADME; settings: pampa, 5 h
[7] = biological target: T2, Tripartite terminase subunit 3 (Human betaherpesvirus 5, UniProt P16732)
T2 sequence (P16732 whole entry): T1 sequence (whole entry)
Description: Inhibition of human cytomegalovirus pUL89 endonuclease activity using 60 bp dsDNA substrate incubated for 30 mins by ELISA-based biochemical assay

[8] = tested on: HEL 299; settings: human, hel 299, 168 h

## O=C(O)c1cn(Cc2ccc(Cl)c(F)c2)cc(O)c1=O
[1]
  ΔTm: 2.4 °C

## O=c1cc(Sc2ccccc2Br)[nH]c(=O)n1O
[2]
  inhibition: 21%
[3]
  inhibition at 10 µM: -14%
[4]
  viability at 168 h, 10 µM: 101%

## CCn1c(Sc2ccccc2F)cc(=O)n(O)c1=O
[2]
  inhibition: 75%
[3]
  inhibition at 10 µM: -0.7%
[5]
  Activity: 124%

## Cn1c(Sc2cccc(F)c2)cc(=O)n(O)c1=O
[2]
  inhibition: 37%
[3]
  inhibition at 10 µM: -3.8%
[4]
  viability at 168 h, 10 µM: 125%
[6]
  Papp: 2.5 10^-6 cm/s
[7]
  IC50: 24 µM
[1]
  ΔTm: 0.56 °C

## O=c1cc(Sc2cccc(Br)c2)[nH]c(=O)n1O
[2]
  inhibition: 16%
[3]
  inhibition at 10 µM: -6%
[4]
  viability at 168 h, 10 µM: 123%

## O=c1cc(Sc2ccc(Br)cc2)[nH]c(=O)n1O
[2]
  inhibition: 14%
[3]
  inhibition at 10 µM: 12%
[4]
  viability at 168 h, 10 µM: 129%

## O=c1cc(Sc2ccc([N+](=O)[O-])cc2)[nH]c(=O)n1O
[2]
  inhibition: 58%
[3]
  inhibition at 10 µM: -5.1%
[4]
  viability at 168 h, 10 µM: 115%
[6]
  Papp: 0.017 10^-6 cm/s
[7]
  IC50: 3.6 µM
[1]
  ΔTm: 2.8 °C

## Cn1c(Sc2ccc(C(F)(F)F)cc2)cc(=O)n(O)c1=O
[3]
  inhibition at 10 µM: 50%
[4]
  viability at 168 h, 10 µM: 107%

## Cn1c(Sc2ccc(Cl)cc2)cc(=O)n(O)c1=O
[3]
  inhibition at 10 µM: 35%
[4]
  viability at 168 h, 10 µM: 132%
[6]
  Papp: 4.5 10^-6 cm/s

## Cn1c(Sc2ccc(Br)cc2)cc(=O)n(O)c1=O
[3]
  inhibition at 10 µM: 57%
[4]
  viability at 168 h, 10 µM: 113%

## CCc1ccccc1Sc1cc(=O)n(O)c(=O)n1C
[3]
  inhibition at 10 µM: 87%
[4]
  viability at 168 h, 10 µM: 108%
[6]
  Papp: 5.8 10^-6 cm/s

## O=c1cc(Sc2cccc(-c3cccc(C(F)(F)F)c3)c2)[nH]c(=O)n1O
[2]
  inhibition: 20%
[3]
  inhibition at 10 µM: 33%
[4]
  viability at 168 h, 10 µM: 118%

## O=c1cc(Sc2ccccc2)[nH]c(=O)n1O
[2]
  inhibition: 30%
[3]
  inhibition at 10 µM: -16%
[4]
  viability at 168 h, 10 µM: 108%

## CCn1c(Sc2cccc(Cl)c2)cc(=O)n(O)c1=O
[2]
  inhibition: 59%
[3]
  inhibition at 10 µM: 101%
[4]
  viability at 168 h, 10 µM: 1.3%
[6]
  Papp: 5.1 10^-6 cm/s
[7]
  IC50: 5.7 µM
[1]
  ΔTm: 0.74 °C

## O=c1cc(Sc2ccc(O)cc2)[nH]c(=O)n1O
[2]
  inhibition: 27%
[3]
  inhibition at 10 µM: 1%
[4]
  viability at 168 h, 10 µM: 118%

## CCn1c(Sc2ccc(Cl)cc2)cc(=O)n(O)c1=O
[2]
  inhibition: 76%
[3]
  inhibition at 10 µM: 98%
[4]
  viability at 168 h, 10 µM: 40%

## Cn1c(Sc2ccccc2)cc(=O)n(O)c1=O
[2]
  inhibition: 65%
[3]
  inhibition at 10 µM: 21%
[4]
  viability at 168 h, 10 µM: 115%

## Cn1c(Sc2ccc(F)cc2)cc(=O)n(O)c1=O
[2]
  inhibition: 90%
[3]
  inhibition at 10 µM: 0%
[4]
  viability at 168 h, 10 µM: 117%
[6]
  Papp: 3 10^-6 cm/s
[7]
  IC50: 12 µM
[1]
  ΔTm: 0.86 °C

## CCn1c(Sc2ccc(Br)cc2)cc(=O)n(O)c1=O
[2]
  inhibition: 66%
[3]
  inhibition at 10 µM: 100%
[4]
  viability at 168 h, 10 µM: 16%

## O=c1cc(Sc2cccc(-c3ccc(F)cc3)c2)[nH]c(=O)n1O
[2]
  inhibition: 10%
[3]
  inhibition at 10 µM: 19%
[4]
  viability at 168 h, 10 µM: 100%

## CCn1c(Sc2ccc(F)cc2)cc(=O)n(O)c1=O
[3]
  inhibition at 10 µM: 67%
[4]
  viability at 168 h, 10 µM: 114%
[6]
  Papp: 4.1 10^-6 cm/s

## Cn1c(Sc2ccccc2Br)cc(=O)n(O)c1=O
[4]
  viability at 168 h, 10 µM: 117%

## Cn1c(Sc2cccc(Br)c2)cc(=O)n(O)c1=O
[3]
  inhibition at 10 µM: 100%
[4]
  viability at 168 h, 10 µM: 14%
[7]
  IC50: 6.5 µM
[1]
  ΔTm: 0.76 °C

## O=c1cc(Sc2ccc(F)cc2)[nH]c(=O)n1O
[2]
  inhibition: 54%
[3]
  inhibition at 10 µM: -2.3%
[4]
  viability at 168 h, 10 µM: 118%

## Cn1c(Sc2cccc(C(F)(F)F)c2)cc(=O)n(O)c1=O
[3]
  inhibition at 10 µM: 68%
[4]
  viability at 168 h, 10 µM: 99%

## Nc1nc(O)c2ncn(COC(CO)CO)c2n1 [GANCICLOVIR]
[8]
  CC50: > 50 µM

## COc1cccc(-c2ccc(Sc3cc(=O)n(O)c(=O)[nH]3)cc2)c1
[2]
  inhibition: 11%
[3]
  inhibition at 10 µM: 71%
[4]
  viability at 168 h, 10 µM: 107%

## O=c1cc(Sc2ccc(-c3ccc(F)cc3)cc2)[nH]c(=O)n1O
[2]
  inhibition: 19%
[3]
  inhibition at 10 µM: 79%
[4]
  viability at 168 h, 10 µM: 99%

## O=c1cc(Sc2cccc(-c3ccc(Cl)cc3)c2)[nH]c(=O)n1O
[3]
  inhibition at 10 µM: 81%
[4]
  viability at 168 h, 10 µM: 100%

## CCc1ccc(Sc2cc(=O)n(O)c(=O)n2C)cc1
[2]
  inhibition: 67%
[3]
  inhibition at 10 µM: 21%
[4]
  viability at 168 h, 10 µM: 121%
[6]
  Papp: 6.6 10^-6 cm/s
[7]
  IC50: 11.8 µM
[1]
  ΔTm: 0.29 °C

## O=c1cc(Sc2ccc(C(F)(F)F)cc2)[nH]c(=O)n1O
[2]
  inhibition: 16%
[3]
  inhibition at 10 µM: -9%
[4]
  viability at 168 h, 10 µM: 119%

## Cc1ccc(-c2cccc(Nc3cc(=O)n(O)c(=O)[nH]3)c2)c(C)c1
[7]
  IC50: 3.5 µM
[1]
  ΔTm: -2.2 °C

## O=c1cc(Sc2cccc(F)c2)[nH]c(=O)n1O
[2]
  inhibition: 40%
[3]
  inhibition at 10 µM: 83%
[5]
  Activity: 65%

## COc1cccc(Sc2cc(=O)n(O)c(=O)[nH]2)c1
[2]
  inhibition: 92%
[3]
  inhibition at 10 µM: -13%
[4]
  viability at 168 h, 10 µM: 114%
[6]
  Papp: 0.21 10^-6 cm/s
[7]
  IC50: 1.9 µM
[1]
  ΔTm: 1.8 °C

## O=c1cc(Sc2ccc(-c3ccc(C(F)(F)F)cc3)cc2)[nH]c(=O)n1O
[2]
  inhibition: 12%
[3]
  inhibition at 10 µM: 84%
[4]
  viability at 168 h, 10 µM: 107%

## CCn1c(Sc2ccccc2Br)cc(=O)n(O)c1=O
[2]
  inhibition: 64%
[3]
  inhibition at 10 µM: 100%
[4]
  viability at 168 h, 10 µM: 16%

## Cn1c(Sc2cccc3ccccc23)cc(=O)n(O)c1=O
[3]
  inhibition at 10 µM: 98%
[4]
  viability at 168 h, 10 µM: 111%
[6]
  Papp: 5.1 10^-6 cm/s

## Cc1ccc(-c2ccc(Nc3cc(=O)n(O)c(=O)n3C)cc2)cc1
[7]
  IC50: 3.3 µM
[1]
  ΔTm: -2.8 °C

## COc1cccc(Sc2cc(=O)n(O)c(=O)n2C)c1
[3]
  inhibition at 10 µM: 91%
[4]
  viability at 168 h, 10 µM: 135%
[6]
  Papp: 2.4 10^-6 cm/s

## CCn1c(Sc2cccc(Br)c2)cc(=O)n(O)c1=O
[2]
  inhibition: 71%
[3]
  inhibition at 10 µM: 100%
[4]
  viability at 168 h, 10 µM: 7%

## CCn1c(Sc2cccc(F)c2)cc(=O)n(O)c1=O
[2]
  inhibition: 34%
[3]
  inhibition at 10 µM: 12%
[4]
  viability at 168 h, 10 µM: 126%
[6]
  Papp: 3.4 10^-6 cm/s
[7]
  IC50: 23 µM
[1]
  ΔTm: 0.86 °C

## COc1ccc(-c2cccc(Sc3cc(=O)n(O)c(=O)[nH]3)c2)cc1F
[2]
  inhibition: 16%
[3]
  inhibition at 10 µM: -11%
[4]
  viability at 168 h, 10 µM: 106%

## O=c1cc(Sc2cccc(-c3ccc(C(F)(F)F)cc3)c2)[nH]c(=O)n1O
[2]
  inhibition: 22%
[3]
  inhibition at 10 µM: 70%
[4]
  viability at 168 h, 10 µM: 110%

## O=c1cc(Sc2ccc(-c3ccc(Cl)cc3)cc2)[nH]c(=O)n1O
[2]
  inhibition: 11%
[3]
  inhibition at 10 µM: 82%
[4]
  viability at 168 h, 10 µM: 102%
